From ChEMBL document CHEMBL4602687, “Dual Binding to Orthosteric and Allosteric Sites Enhances the Anticancer Activity of a TRAP1-Targeting Drug” (J Med Chem, 2020)
Changes are numbered by the printed parent chain. Calls of active or inactive are those of the source. The calls are words filed in the database; no cut-off is given here.

What was measured:
[1] = biological target: T1, Heat shock protein 75 kDa, mitochondrial (Homo sapiens) (UniProt Q12931); test: Stimulation of recombinant wild-type human TRAP1 ATPase activity expressed in Escherichia coli BL21 (DE3) at 2 to 5 uM preincubated for 0.5 hrs followed by 0.2 mM ATP addition and measured after 3 hrs by PiColorLock Gold reagent based colorimetric assay relative to control
T1 sequence (whole entry): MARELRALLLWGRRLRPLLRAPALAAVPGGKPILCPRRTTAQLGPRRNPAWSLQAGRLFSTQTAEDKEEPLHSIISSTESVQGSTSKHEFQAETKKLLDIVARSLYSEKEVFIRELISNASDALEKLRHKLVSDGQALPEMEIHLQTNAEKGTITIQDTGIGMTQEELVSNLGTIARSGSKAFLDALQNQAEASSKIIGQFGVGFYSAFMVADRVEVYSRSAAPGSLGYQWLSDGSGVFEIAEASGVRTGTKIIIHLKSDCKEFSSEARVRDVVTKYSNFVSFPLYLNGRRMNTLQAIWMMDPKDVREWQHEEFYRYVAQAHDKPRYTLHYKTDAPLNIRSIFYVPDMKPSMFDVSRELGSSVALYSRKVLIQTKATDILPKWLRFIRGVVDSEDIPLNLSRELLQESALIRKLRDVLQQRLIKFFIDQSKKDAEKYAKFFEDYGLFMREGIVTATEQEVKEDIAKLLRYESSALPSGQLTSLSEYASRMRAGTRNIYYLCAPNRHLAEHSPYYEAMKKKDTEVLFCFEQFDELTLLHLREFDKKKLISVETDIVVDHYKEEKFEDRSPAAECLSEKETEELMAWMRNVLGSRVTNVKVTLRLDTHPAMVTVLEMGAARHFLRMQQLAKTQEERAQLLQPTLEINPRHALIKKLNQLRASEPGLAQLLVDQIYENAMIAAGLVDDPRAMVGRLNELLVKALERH

[2] = tested on: T2, Heat shock protein 75 kDa, mitochondrial (Homo sapiens), Q12931 [E115Q]; test: Inhibition of recombinant […] human TRAP1 E115Q mutant ATPase activity expressed in Escherichia coli BL21 (DE3) up to 20 uM preincubated for 0.5 hrs followed by ATP addition and measured after 3 hrs by PiColorLock Gold reagent based colorimetric assay
T2 sequence (whole entry): T1 sequence (whole entry) with E115Q

[3] = tested on: T3, Heat shock protein 75 kDa, mitochondrial (Homo sapiens), Q12931 [E115K,R114E,E403K]; test: Stimulation of recombinant […] human TRAP1 E115K/R114E/E403K mutant ATPase activity expressed in Escherichia coli BL21 (DE3) up to 20 uM preincubated for 0.5 hrs followed by ATP addition and measured after 3 hrs by PiColorLock Gold reagent based colorimetric assay
T3 sequence (whole entry): T1 sequence (whole entry) with R114E, E115K, E403K

[4] = biological target: T1, Heat shock protein 75 kDa, mitochondrial (Homo sapiens); test: Inhibition of TRAP1 in human PC3 cells assessed as increase in CHOP expression at 5 uM measured after 2 to 12 hrs by Western blot analysis; format: cell-based; details: PC-3
HeLa = test: Cytotoxicity against human HeLa cells assessed as reduction in cell viability up to 3 uM measured after 24 hrs by MTT assay; format: functional, cell-based
LN-229 = test: Cytotoxicity against human LN229 cells assessed as reduction in cell viability up to 3 uM measured after 24 hrs by MTT assay; format: functional, cell-based
NCI-H460 = test: Antitumor activity against human NCI-H460 cells xenografted in nude mouse assessed as reduction in tumor cell proliferation at 5 mg/kg, ip administered daily by Ki67 staining based immunohistochemistry analysis; format: functional, organism-based

fold change (FC) [1]: 1.2
inhibition [2]: Active
Activity [3]: inactive
inhibition [4]: Active
Compound: Nc1ncnc2c1nc(Sc1cc3c(cc1I)OCO3)n2CCCCCCCCCC[P+](c1ccccc1)(c1ccccc1)c1ccccc1
Activity (HeLa): Active
Activity (LN-229): Active
Activity (NCI-H460): Active
